Tested on: plucked human hair follicles
Experiment: ex vivo culture of plucked human hair
Format: cell-based
Settings: 0.25 mM; 5 days of exposure; no other growth factors
Experimental: Plucked human hair with evident presence of the bulb area were immersed immediately after collection in cell growth media. Some of the hair samples were exposed to with lipid-modified protein/MBCD complexes (loaded MBCD) from embryonic stem cell culture as described in Example 2 (referred to as active ingredient), or unloaded MBCD as control, at the same concentration of 0.25 mM of the cyclodextrin component. No other growth factors (e.g., EGF, KGF, etc) were used in the hair follicle cultures.

methyl-β-cyclodextrin [unloaded MBCD]
status of follicles in culture: underwent senescence and detached from the substrate

From US12268770B2, “Use of cell membrane-bound signaling factors” (AiVita Biomedical, Inc., priority 2017, dated 2025)
